Experimental data: PubChem BioAssay AID652 (University of Pittsburgh Molecular Library Screening Center, 2007)
The source made the active and inactive calls. The rule behind the calls is not given here.

What follows are molecules tested against Gag-Pol polyprotein (Human immunodeficiency virus type 1 group M subtype B (isolate HXB2)) (UniProt P04585) (assay: concentration-response of HIV-1 RNase H blockers – biochemical, probe assessment, dose response (AID 652)). Settings: HIV-1 RT RNase H enzymatic assay.

Row | SMILES | IC50
1 | C=CCOC(=O)C1=C(C)NC(SCC(=O)Nc2ccc(C)c(Cl)c2)=C(C#N)C1c1ccco1 (stereo unspecified) | 4.25 µM
2 | S=C(c1ccc(-c2ccccc2Cl)o1)N1CCOCC1 | 0.926 µM
3 | O=c1/c(=C/c2ccccn2)sc2nc3ccccc3n12 | 14.6 µM
4 | Nc1c(C(=O)NCc2cccnc2)sc(=S)n1-c1ccccc1 | 2.22 µM
5 | N#Cc1c(-c2cccnc2)c2c([nH]c1=S)CCCC2 | 10.2 µM
6 | O=C(Nc1nc(-c2ccncc2)cs1)C1COc2ccccc2O1 (stereo unspecified) | > 50 µM (inactive)
7 | C=CCSc1nc2c(cnn2-c2ccc(C)c(C)c2)c(=O)[nH]1 | 13.8 µM
8 | O=C(CCSCCC(=O)NCc1ccco1)NCc1ccco1 | 0.953 µM
9 | COCCn1c(SCCN2CCOCC2)nc2c1c(=O)[nH]c(=O)n2C | > 50 µM (inactive)
10 | O=C1C=Cc2ccccc2C1=O | 2.64 µM
11 | CN1CCN(C2=C(Cl)C(=O)N(c3ccc(Cl)c(Cl)c3)C2=O)CC1 | 27.1 µM
12 | N#CC1=C(N)SC(N)=C(C#N)C1c1ccnc2ccccc12 | 13.7 µM
13 | CCCCn1c(SCC(=O)OCC)nc2c1c(=O)[nH]c(=O)n2C | > 50 µM (inactive)
14 | O=C1CCCC(O)=C1C(C#Cc1ccccc1)C1=C(O)CCCC1=O | 1.08 µM
15 | Oc1ccc(-c2nc(-c3ccc(O)c(O)c3)cs2)cc1 | 2.23 µM
16 | CCOC(=O)N1CC=C2C(C#N)=C(N)C(C#N)(C#N)[C@H](c3ccc(OC(C)C)c(OCC)c3)[C@H]2C1 | 21.7 µM

Same assay, conditions: HIV-1 RT RNase H enzymatic assay, inhibition, at 50 µM, stronger effect = higher value

Row | SMILES | inhibition [%]
17 | COC(=O)c1ccc2c(=O)n(Cc3ccco3)c(SCC(=O)Nc3ccccc3Cl)nc2c1 | 92.2
18 | Cc1ccc(-n2c(N)c(C(=O)N3CCN(C)CC3)sc2=S)cc1 | 53.5
19 | COc1ccc(OC)c(Nc2nc(-c3ccc(O)c(O)c3)cs2)c1 | 97.8
20 | COC(=O)c1ccc2c(c1)N(Cc1nc(-c3ccc(Cl)cc3)oc1C)C(=O)C1CCCN21 (stereo unspecified) | 78.9
21 | C=CCOC(=O)C1=C(C)NC(SCC(=O)Nc2ccc(C)c(Cl)c2)=C(C#N)C1c1ccco1 (stereo unspecified) | 98.7
22 | COc1ccc2ccccc2c1C1CC(=O)N2CN(C3CCCCC3)CSC2=C1C#N (stereo unspecified) | 92.3
23 | Cc1sc2nc(SCC(=O)NCc3ccco3)n(CCc3ccccc3)c(=O)c2c1C | 82.4
24 | S=C(c1ccc(-c2ccccc2Cl)o1)N1CCOCC1 | 92.6
25 | C=CCOc1ccc(CC2C(=O)N(C)C(=O)N(C)C2=O)cc1 | 101
26 | O=c1/c(=C/c2ccccn2)sc2nc3ccccc3n12 | 89.2
27 | CCOC(=O)C1CCCN(C(=O)Cn2sc3nc(C)cc(C)c3c2=O)C1 (stereo unspecified) | 69.6
28 | CCCc1cc(C(=O)Nc2sc(C)c(C)c2C(=O)OCC)no1 | 98
29 | CCOc1ccc(-n2c(=O)c3c4c(sc3n(CC(=O)NCc3ccco3)c2=O)CCC4)cc1 | 89.9
30 | COc1cc(C(=O)Nc2oc(-c3ccccc3)c(-c3ccccc3)c2C#N)cc(OC)c1OC | 94
31 | OCCN1CCN(C(=S)c2ccc(Cl)c(Cl)c2)CC1 | 76.6
32 | Nc1c(C(=O)NCc2cccnc2)sc(=S)n1-c1ccccc1 | 73.5
33 | COc1ccccc1-c1nnc2n1N=C(c1ccc(O)c(O)c1)CS2 | 97
34 | CCC1CCCCN1S(=O)(=O)c1ccc(S(=O)(=O)N2CCN(S(=O)(=O)CC)CC2)cc1 (stereo unspecified) | 93
35 | COCCn1c(-c2ccc(-c3ccccc3Cl)o2)nc2c1c(=O)[nH]c(=O)n2CC(C)C | 85
36 | Cc1cccc(C)c1NC(=O)CSCC(=O)c1ccc(O)c(O)c1 | 94.7
37 | CCOC(=O)c1sc(=S)n2c1[nH]c(=O)c1ccc(C(=O)OC)cc12 | 99.7
38 | Cc1ccc(Cn2c(SCC(C)C)nc3c2c(=O)[nH]c(=O)n3C)cc1 | 91.8
39 | Cc1ccc(NC(=O)Cn2nnc(C(=O)Nc3ccc(C)c(C)c3)c2N)cc1 | 76.8
40 | Cc1ccc(-n2c(N)c(C(=O)N3CCCCC3)sc2=S)cc1 | 79.5
41 | CC(C)c1nc2sc3c(SCC(=O)NCc4ccco4)ncnc3c2c2c1CCC2 | 94.1
42 | Nc1c(C(=O)N2CCOCC2)sc(=S)n1-c1ccccc1 | 75.2
43 | CCCCCn1c(SCCCC)nc2c1c(=O)[nH]c(=O)n2C | 91.1

Row | SMILES | inhibition [%]
44 | CC(C)CNC(=O)c1c(N)n(/N=C/c2ccccn2)c2nc3ccccc3nc12 | 95
45 | COc1ccc(-n2c(SCC(=O)N3CCCC3)nc3c([nH]c4ccccc43)c2=O)cc1 | 66.7
46 | N#Cc1c(-c2cccnc2)c2c([nH]c1=S)CCCC2 | 77.9
47 | Cc1ccccc1NC(=O)c1c(O)c2cccc3c2n(c1=O)CC3 | 84.6
48 | COc1ccc(N2CSC3=C(C#N)C(c4cc(OC)c(OC)cc4OC)CC(=O)N3C2)c(OC)c1 (stereo unspecified) | 76.1
49 | Cc1ccc(-c2cc(C(=O)NC3=NCCS3)c3cc(Br)ccc3n2)o1 | 92.4
50 | COc1ccc(C2c3c(oc4ccc(Cl)cc4c3=O)C(=O)N2Cc2ccco2)cc1OC (stereo unspecified) | 95.9
51 | Cc1cc(C)c(C#N)c(=N)o1 | 83
52 | O=C(Nc1nc(-c2ccncc2)cs1)C1COc2ccccc2O1 (stereo unspecified) | 92.5
53 | C=CCn1c(N)c(C(=O)NCCC2=CCCCC2)sc1=S | 85.9
54 | O=C(CCCn1c(SCC(=O)c2ccc(O)c(O)c2)nc2ccccc2c1=O)NCC1CCCO1 (stereo unspecified) | 99.4
55 | c1c2c(cc3sc(N4CCOCC4)nc13)OCO2 | 78.1
56 | Cc1ccc(/C=C/C2=Cc3c(sc(NC(=O)CSc4n[nH]c(N)n4)c3C#N)C(C)(C)C2)o1 | 91.1
57 | C=CCSc1nc2c(cnn2-c2ccc(C)c(C)c2)c(=O)[nH]1 | 88.6
58 | O=c1[nH]c(=O)n(-c2ccc(F)cc2)c(O)c1C=Nc1ccccc1N1CCCC1 | 83.7
59 | C=CCSc1nc2c(c(=O)[nH]c(=O)n2C)n1C(C)C | 60.6
60 | Cc1nn(CCC#N)c2c1P(=S)(N1CCCC1)OC(c1ccc(F)cc1)=N2 (stereo unspecified) | 90.2
61 | COC(=O)c1ccc2c(=O)[nH]c(CN3c4ccccc4CC3C)nc2c1 (stereo unspecified) | 62.3
62 | CN(C)c1cccc(C(=O)Nc2cccc(F)c2)c1 | 72
63 | O=C(CCSCCC(=O)NCc1ccco1)NCc1ccco1 | 98.4
64 | COCCn1c(SCCN2CCOCC2)nc2c1c(=O)[nH]c(=O)n2C | 40
65 | O=C1C=Cc2ccccc2C1=O | 97.7
66 | CCC(C)Sc1nc2c(c(=O)[nH]c(=O)n2C)n1CC(O)COc1cccc2ccccc12 (stereo unspecified) | 95
67 | CCOC(=O)c1c(N)sn(-c2ccccc2C)c1=S | 83.4
68 | Nc1sc2c(c1C(=O)NC1CCS(=O)(=O)C1)CCC2 (stereo unspecified) | 74.5
69 | CC(C)CN(C(=O)COC(=O)c1ccc2c(c1)NC(=O)CS2)C1CCS(=O)(=O)C1 (stereo unspecified) | 55.8
70 | Cc1sc(NC(=O)c2oc3ccccc3c2C)c(C#N)c1C | 90.3

Row | SMILES | inhibition [%]
71 | CN1CCN(C2=C(Cl)C(=O)N(c3ccc(Cl)c(Cl)c3)C2=O)CC1 | 61.9
72 | N#CC1=C(N)SC(N)=C(C#N)C1c1ccnc2ccccc12 | 70.4
73 | O=C(Nc1nc(-c2ccncc2)cs1)c1ccco1 | 87.1
74 | Cc1ccc(-n2nc(C)c3c2NC(=O)CSC3c2ccc3c(c2)OCO3)cc1 (stereo unspecified) | 89.4
75 | CC1CCN(S(=O)(=O)c2ccc(NC(=O)Cn3nnc(-c4ccccc4)n3)cc2)CC1 | 61.5
76 | Cc1nc(-c2cccc(S(=O)(=O)N3CCOCC3)c2)cs1 | 96.4
77 | COc1ccc(N2CCN(Cc3cc(=O)oc4cc5c(cc34)CCCC5)CC2)cc1 | 88.8
78 | O=C(CSc1nc2ccccc2c2nc3ccccc3n12)NCc1ccco1 | 67.7
79 | CCOC(=O)N1CCc2c(sc3c2C(=O)NC(c2ccc(-c4ccc(Cl)cc4)o2)N3)C1 (stereo unspecified) | 94.3
80 | Nc1ccc(-c2nnc(-c3ccc(-c4ccccc4)cc3)o2)cc1 | 101
81 | COc1cc(C2CC(=O)N3CN(c4ccccc4C)CSC3=C2C#N)cc(OC)c1OC (stereo unspecified) | 100
82 | COc1cc(OC)c(C2CC(=O)N3CN(C)CSC3=C2C#N)cc1OC (stereo unspecified) | 76.1
83 | CN1CSC2=C(C#N)C(c3cccc(OCc4ccccc4)c3)CC(=O)N2C1 (stereo unspecified) | 89.7
84 | c1ccc2c(c1)ncn2Cc1nnc2sc(-c3ccc4c(c3)OCO4)nn12 | 93
85 | CCCCn1c(SCC(=O)OCC)nc2c1c(=O)[nH]c(=O)n2C | 55.7
86 | CCCc1nnc(NC(=O)CN2C(=O)c3ccccc3S2(=O)=O)s1 | 75.7
87 | N#Cc1c(SCC(=O)Nc2nccs2)nc2c(c1-c1ccco1)CCCC2 | 88.9
88 | Cc1ccc(NC(=O)CSc2nnc(-c3ccc(S(=O)(=O)N4CCCC4)cc3)o2)cc1C | 88.6
89 | CCCCCCNC(=O)c1c(N)n(/N=C/c2ccco2)c2nc3ccccc3nc12 | 98.3
90 | COC(=O)N(c1ccccc1)P1(=S)OCCO1 | 81.9
91 | Cc1ccc2c(c1C)NC(C(=O)O)C1CC=CC21 (stereo unspecified) | 96.5
92 | CC(C)OC(=O)CSc1nnc(-c2ccc(C(C)(C)C)cc2)n1N | 59.5
93 | O=c1/c(=C\c2cccn2-c2ccccc2)sc2nc3ccccc3n12 | 92
94 | COc1ccc(Br)cc1C1CC(=O)N2CN(C)CSC2=C1C#N (stereo unspecified) | 84.1
95 | COc1ccccc1CNC(=O)c1cc2c(=O)n(C)c3ccccc3c2n1C | 86
96 | CCOc1ccc(S(=O)(=O)Nc2cc(Sc3ncn[nH]3)c3oc(=O)sc3c2)cc1 | 94.6
97 | Cc1sc(-n2c(C)cc(/C=N/n3cnnc3)c2C)c(C#N)c1C | 89.5

Row | SMILES | inhibition [%]
98 | O=C1CCCC(O)=C1C(C#Cc1ccccc1)C1=C(O)CCCC1=O | 90.9
99 | Oc1ccc(-c2nc(-c3ccc(O)c(O)c3)cs2)cc1 | 101
100 | COc1cc(OC)c(C2CC(=O)N3CN(c4ccccc4C)CSC3=C2C#N)cc1OC (stereo unspecified) | 97.9
101 | CC1CC(C)(C)NC(=S)S1 (stereo unspecified) | 66
102 | COc1ccccc1N1CSC2=C(C#N)C(c3ccc(SC)cc3)CC(=O)N2C1 (stereo unspecified) | 97.1
103 | Cc1cccc(C(=O)OCC(=O)Nc2ccc(N3CCCCC3)cc2)c1O | 94.7
104 | CCc1ccc(NC(=O)CSc2nc3cc(C(=O)OC)ccc3c(=O)n2Cc2ccco2)cc1 | 94.7
105 | C=CCn1c(SCC(=O)c2ccc(O)c(O)c2)nnc1-c1ccccc1OC | 97.5
106 | O=C(NCc1ccco1)c1cc2cc3ccc(Cl)cc3nc2o1 | 91.6
107 | CC(C)(C)c1ccc(-c2nnc3sc(-c4ccncc4)nn23)cc1 | 96.3
108 | Cc1ccc(-n2c(N)c(C(N)=O)sc2=S)cc1 | 83.3
109 | CCOC(=O)N1CC=C2C(C#N)=C(N)C(C#N)(C#N)[C@H](c3ccc(OC(C)C)c(OCC)c3)[C@H]2C1 | 98.5
110 | Cc1nn2c(-c3cccc(NC(=O)CSc4nc5ccccc5o4)c3)nnc2c2ccccc12 | 98.2
111 | CCOC(=O)c1sc(NC(=O)CSc2nnc(Cc3ccccc3)o2)c(C#N)c1C | 98.3
112 | O=c1c2ccccc2[se]n1-c1ccccc1 | 85.5
113 | S=c1nc(C2CC2)[nH]c2ccccc12 | 97.1
114 | CCOC(=O)Cc1csc(-n2sc3ccccc3c2=O)n1 | 96.4
115 | COC(=O)c1sc(N2C(=O)c3oc4ccccc4c(=O)c3C2c2cccs2)nc1C (stereo unspecified) | 95.8
116 | COc1ccc(S(=O)(=O)Nc2ccc(O)c3ccccc23)cc1 | 67.3
117 | NC(=O)c1cc(-c2ccccc2)sc1NC(=O)Cc1ccc(S(=O)(=O)N2CCOCC2)s1 | 83.3
118 | CCOC(=O)N(c1ccccc1)P1(=S)OCCO1 | 85.5
119 | CC(=O)N(Cc1cc(=O)[nH]c2ccccc12)c1cccc(C)c1 | 89.9
120 | CC(C)Cn1c(SCC(=O)NC(=O)Nc2ccc3c(c2)OCCO3)nc2ccccc2c1=O | 83.9
121 | Cc1ccc(-n2sc3ccccc3c2=O)cc1S(=O)(=O)N1CCCCC1 | 96.9
